What was measured:
IFN-γ = IFN-γ secretion from activated PBMCs, ELISA; assay type: cell-based, human; conditions: 1-day pretreatment, 5th day of MLR
Procedure: Figure 1 AD2900 inhibits human lymphocyte proliferation in allogeneic activation (A, B) The levels of proliferative response of human peripheral blood lymphocytes (PBMCs) after 1-day pretreatment with different concentrations of AD2900, AD2750, YZ138, YZ158, and YZ297 (A) or AD2900, FTY720, and SEW2871 (B) were tested by human allogeneic mixed lymphocyte reaction (MLR) assay, followed by a [3H] thymidine incorporation analysis. (C) Apoptosis of AD2900-treated activated PBMCs was tested by AnnexinV-propidium iodide (PI) FACS analysis following 1-day AD2900 pretreatment and MLR. All the samples were compared to the untreated PBMC control. (D) IFN-γ secretion from activated PBMCs was tested by ELISA following a 1-day AD2900 pretreatment in MLR. On the 5th day of hMLR, supernatants were collected and assayed for the level of IFN-γ. (E) Jurkat cell viability after a 1-day treatment with different concentrations of AD2900, FTY720, and SEW2871 was tested by XTT viability assay. […]
Human PBLs were collected from human whole blood collected from healthy donors. […] For the thymidine incorporation assay, after 4 days of co-culture, cells were pulsed with ^3H-thymidine at 1 μCi (0.037MBq) per well (PerkinElmer, MA, USA) for 16 additional hours and then harvested onto glass-fiber filters. ^3H-thymidine incorporation was measured using Top Count. […]

C57BL/6 mice = assay: T, B and NK cell populations in blood, spleen and lymph nodes, FACS; assay type: in vivo, mouse
Description: S1P receptors are differentially expressed by distinct immune cell populations. Since AD2900 is an antagonist to all S1P receptors, we next evaluated its influence on the localization of different murine lymphocyte populations. To achieve this aim, we performed FACS analysis of the blood (Figure 5A), spleen (Figure 5B), and lymph node cells (Figure 5C) using antibodies against surface markers of T cells, B cells, and NK cells (TCR-β, CD19, and CD49b, respectively). […] The NK cell count was elevated by 55.7% (4.741 ± 0.8621 × 10^6 cells/ml) after a 7-day treatment with AD2900. […] The trend in the B-cell change was opposite to that in the T- and NK cell changes in the lymph nodes.
Figure 5 AD2900 treatment affects the distribution of T cells, B cells, and NK cells in blood, spleen, and peripheral lymph nodes C57BL/6 mice were orally administered with AD2900 or FTY720, as shown in Figure 4. Leukocytes from blood, spleen, and pLNs were collected and stained with TCR-β, CD19, and CD49b fluorescent antibodies and then analyzed by FACS analysis. The percentages of TCR-β+ T cells (left panel), CD19+ B cells (central panel), and CD49b+ NK cells (right panel) of the total leukocytes from blood (A), spleen (B), and pLNs (C) are shown. The results of T and B cells are from 2 days’ experiments. The results of NK cells are from 2 and 7 days’ experiments. All the significances are compared to untreated healthy mice. Results summarize three independent experiments. Results of Student’s t-test:*(P < 0.05, two-tailed test), ** (P < 0.01, two-tailed test), *** (P < 0.001, two-tailed test), **** (P < 0.0001, two-tailed test).
Murine lymphocytes: The phenotype of murine lymphocytes was analyzed by flow cytometry using anti-CD3e-FITC, anti-CD19-PB, anti-CCR7-APC, anti-CD44-FITC, anti-CD62L-APC, and anti-TCR-β-PB (Biolegend, CA, USA).
To eliminate the red blood cells, RBC lysis buffer (Beit Haemek, Israel) or BD FACS lysing solution (BD Biosciences, CA, USA) was added into murine blood and splenocyte samples. Flow cytometry was performed using the MACSQuant® Analyzer (Miltenyi Biotech, Germany), and the data were analyzed using FCS Express V3 software.
C57BL/6 female mice aged 7–8 weeks were obtained from Harlan Laboratories (Jerusalem, Israel). The animal study was conducted under appropriate conditions and was approved by the Institutional Animal Care and Use Committee of the Hebrew University of Jerusalem in accordance with the national laws and regulations for the protection of animals. AD2900 was dissolved in 10% BSA (MP Biomedicals, CA, USA) in DDW at 1 mg/ml and then further diluted in 200 ml water to get final concentrations at 1.8, 2.7, or 3.6 mg/l. AD2900 and FTY720 were supplied ad libitum to the mice for 2 days or 7 days. At the end of the experiment, blood was collected, and the mice were sacrificed and tissues (lymph nodes and spleen) were harvested.

CCCCCCCCCCCCCCCCNC(CO)(CO)CO [AD2900]
IFN-γ concentrations in the supernatant (IFN-γ): reduced level | T cells in the blood, value in parentheses (C57BL/6 mice; 1.8 mg/l, 2-day treatment): 0.7488 ± 0.1641 × 10^6 cells/ml | increase of average count of T cells in the blood (C57BL/6 mice; 1.8 mg/l, 2-day treatment): 81.9% | T cells in the lymph nodes, value in parentheses (C57BL/6 mice; 2-day treatment): 0.7411 ± 0.2217 × 10^5 cells/ml | T cells in the spleen, value in parentheses (C57BL/6 mice; 2-day treatment): 11.79 ± 3.64 × 10^6 cells/ml | decrease of T-cell average count in the lymph nodes (C57BL/6 mice; 2-day treatment): 30% | increase of average count of T cells in the spleen (C57BL/6 mice; 2-day treatment): 96.7% | NK cells in the blood, value in parentheses (C57BL/6 mice; 7-day treatment): 0.3987 ± 0.0706 × 10^6 cells/ml | NK cells in the lymph nodes, value in parentheses (C57BL/6 mice; 7-day treatment): 0.07852 ± 0.03572 × 10^5 cells/ml | NK cells in the spleen, value in parentheses (C57BL/6 mice; 7-day treatment): 4.741 ± 0.8621 × 10^6 cells/ml | decrease of NK cell count in the lymph nodes (C57BL/6 mice; 7-day treatment): 20.8% | elevation of NK cell count in the spleen (C57BL/6 mice; 7-day treatment): 55.7% | increase of average NK cell count in the blood (C57BL/6 mice; 7-day treatment): 52.1% | B cell count in all the organs (C57BL/6 mice; blood, spleen, lymph nodes): not significantly influenced

Reference: paper PMC5581131, “The novel sphingosine-1-phosphate receptors antagonist AD2900 affects lymphocyte activation and inhibits T-cell entry into the lymph nodes” (Oncotarget, 2017)
